Measurements published in patent publication US10709704B2, “Treating neural disease with tyrosine kinase inhibitors” (GEORGETOWN UNIVERSITY, priority 2012, dated 2020).

What was measured:
caspase-3 activation = system: caspase-3 activation
Method: Lentiviral constructs encoding LacZ, or Aβ1-42 were stereotaxically injected 1×106 multiplicity of infection (m.o.i) bilaterally into the CA1 hippocampus of 1 year old C57BL/6 or parkin−/−. A Total of […] lentiviral stocks were delivered at a rate of 0.2 μl/min and. All procedures were approved by the Georgetown University Animal Care and Use Committee (GUACUC).
Aβ and p-Tau enzyme-linked immunosorbent assay (ELISA) using specific p-Tau, Aβ1-40 and Aβ1-42 ELISA and caspase-3 activity were performed according to manufacturer's protocol.

[1] = system: autophagic vacuoles and lysosomes; experiment: Subcellular fractionation and ELISA, lentiviral Aβ1-42 mice; format: in vivo, mouse
Method: Histograms show Aβ1-42 in subcellular fractions, including autophagic vacuole-10 (AV-10; phagophores+autophagosomes), AV-20 (autophagosomes) and lysosomes. […] Brain tissues were fractionated to isolate AVs and human specific ELISA was performed to determine protein contents. […] N=5 animals per treatment.
Brain tissues were fractionated to isolate AVs and human specific ELISA was performed to determine protein contents.
0.5 g of Frozen human or animal brains were homogenized at low speed (Cole-Palmer homogenizer, LabGen 7, 115 Vac) in 1×STEN buffer and centrifuged at 1,000 g for 10 minutes to isolate the supernatant from the pellet. The pellet was re-suspended in 1×STEN buffer and centrifuged once to increase the recovery of lysosomes. The pooled supernatants were then centrifuged at 100,000 rpm for 1 hour at 4° C. to extract the pellet containing autophagic vacuoles (AVs) and lysosomes. The pellet was then re-suspended in 10 ml (0.33 g/ml) 50% Metrizamide and 10 ml in cellulose nitrate tubes. A discontinuous Metrizamide gradient was constructed in layers from bottom to top as follows: 6 ml of pellet suspension, 10 ml of 26%; 5 ml of 24%; 5 ml of 20%; and 5 ml of 10% Metrizamide (Marzella et al., 1982). After centrifugation at 10,000 rpm for 1 hour at 4° C., the fraction floating on the 10% layer (Lysosome) and the fractions banding at the 24%/20% (AV 20) and the 20%/10% (AV10) Metrizamide inter-phases were collected by a syringe and examined.
Animal brains were homogenized at low speed (Cole-Palmer homogenizer, LabGen 7, 115 Vac) in 1×STEN buffer and centrifuged at 1,000 g for 10 minutes to isolate the supernatant from the pellet. The pellet was re-suspended in 1×STEN buffer and centrifuged once to increase the recovery of lysosomes. The pooled supernatants were then centrifuged at 100.000 rpm for 1 hour at […] to extract the pellet containing autophagic vacuoles (AVs) and lysosomes. The pellet was then re-suspended in 10 ml (0.33 g/ml) 50% Metrizamide and 10 ml in cellulose nitrate tubes. […]

GFP-tagged TDP-43 = experiment: Distribution of GFP-tagged TDP-43 in M17 cells; format: cell-based, human; design: distribution of GFP-tagged TDP-43 / translocation of GFP-tagged TDP-43 with Nilotinib or Bosutinib: unit of the concentration uncertain; details: Nilotinib (10 µM) or Bosutinib (5 µM) for additional 24 hrs
Method: Human neuroblastoma M17 cells (seeding density 2×10^5 cells) were grown in 24 well dishes (Falcon) to 70% confluence in Dulbecco's Modified Eagle Medium (DMEM; Invitrogen) plus 10% (v/v) heat-inactivated fetal bovine serum (Invitrogen), penicillin/streptomycin, and 2 mM L-glutamine at 37° C. and 5% CO2, washed twice in phosphate-buffered saline (PBS). Transient transfection was performed with 3 μg parkin cDNA or 3 μg TDP-43 cDNA, or 3 μg LacZ cDNA. Cells were treated with 5 μM tubacin for 24 hours and DAPI stained in 12 well dishes. Cells were harvested 24 hours after transfection. Transfection was performed in DMEM without serum using Lipofectamine 2000 (Invitrogen) according to the manufacturer's protocol. […] Western blot was performed on NuPAGE 4-12% Bis-Tris gel (Invitrogen). Protein estimation was performed using the microscale BioRad protein assay (BioRad Laboratories Inc, Hercules, Calif., USA).
To ascertain that both parkin and HDAC6 are required for TDP-43 translocation, GFP-tagged TDP-43 was expressed in M17 neuroblastoma cells in the presence of wild type or loss-of-function mutant (T240R) parkin, and treated with 5 μM selective HDAC6 inhibitor for 24 hours.
The following data support these conclusions.

[2] = system: human M17 neuroblastoma cells; experiment: MTT cell viability, M17 cells transfected with Aβ1-42 or LacZ; format: cell-based; details: Nilotinib 24 hr
Method: (§1) Human neuroblastoma M17 or rat B35 cells were grown in 24 well dishes (Falcon). Transient transfection was performed with 3 μg Aβ1-42 cDNA, or 3 μg LacZ cDNA for 24 hr. […] Cells were harvested 48 hr after transfection.
(§2) Parkin levels were measured via ELISA using parkin−/− brain extracts as a specificity control (FIG. 66A).

parkin = experiment: Parkin levels in neuroblastoma cells (ELISA, WB); format: cell-based
Method: as §1, §2

[3] = system: lentiviral Aβ1-42-injected parkin−/− mice; experiment: Morris water maze, lentiviral Aβ1-42 parkin−/− mice; format: in vivo, mouse
Method: All animals were pre-trained (trials) to swim for 90 seconds in a water maze containing a platform submerged in water (invisible) for 4 consecutive days once a day. The pretraining trials “teach” the swimming animals that to “escape”, they must find the hidden platform, and stay on it. The water maze “test” was performed on day 5, (40), when the platform was removed and mice have to swim and find it, thus assessing acquisition and retention. All parameters, including distance travelled to reach platform, speed to get to the platform, latency or time spent on platform, and platform entry were digitally recorded on a computer and analyzed by a blind investigator.
The Morris water maze test was performed after 4 days of training trials in which the platform was placed in the SE corner and mice were initially placed in the NW corner of the pool.

[4] = system: mice injected with lentiviral α-synuclein into the substantia nigra; experiment: Rotarod, lentiviral α-Synuclein mice; format: in vivo, mouse
From the text: Mice were placed on an accelerating rotarod (Columbus Instruments) equipped with individual timers for each mouse. […] All values were converted to % control.

[5] = lentiviral Aβ1-42 mice, IP 10 mg/kg Nilotinib or 5 mg/Kg Bosutinib daily 3 weeks

**Q.** Which “increase in caspase-3 activation” value (caspase-3 activation; lentiviral Aβ1-42 parkin−/− mice with Nilotinib (without 180%)) does the source give for `Cc1cn(-c2cc(NC(=O)c3ccc(C)c(Nc4nccc(-c5cccnc5)n4)c3)cc(C(F)(F)F)c2)cn1` [Nilotinib] here?
**A.** Its value is 165%.

**Q.** What about the “caspase-3 activation above control” value (caspase-3 activation; lentiviral Aβ1-42 wild type mice, 10 mg/kg daily 3 weeks (DMSO 165%)) of the same molecule?
**A.** Its value is 45 % above control.

**Q.** What about the “autophagic clearance of Aβ1-42 (deposition in AV-20 and lysosome)” value [1, 5] of the same molecule?
**A.** The value was “enhances autophagic clearance”.

**Q.** What about the “autophagic clearance of p-Tau ser 396 (deposition in AV-20 and lysosome)” value [1, 5] of the same molecule?
**A.** Its value is “enhances autophagic clearance”.

**Q.** And the “autophagic clearance of Aβ1-42 (deposition in AV-20 and lysosomes)” value ([1]; wild type or Tau−/− mice, lentiviral Aβ1-42, 10 mg/kg Nilotinib or 5 mg/Kg Bosutinib daily 3 weeks)?
**A.** The value was “enhances autophagic clearance”.

**Q.** And the “distribution of GFP-tagged TDP-43” value (GFP-tagged TDP-43)?
**A.** The value was “translocation of GFP-tagged TDP-43 from nucleus (A) into the cytosol”.

**Q.** And the “cell viability (MTT) after Aβ1-42 induced cell death” value ([2]; Aβ1-42 expressing cells)?
**A.** The value was 83 % of control level.

**Q.** And the “cell death (by MTT)” value ([2]; LacZ cells)?
**A.** Its value is “No cell death”.

**Q.** And the “increase in parkin (ELISA), non-significant” value (parkin; 10 μM Nilotinib)?
**A.** The value was 17%.

**Q.** And the “increase in parkin (ELISA)” value (parkin; Aβ1-42 + Nilotinib)?
**A.** Its value is 24%.

**Q.** What about the “increase in Nilotinib-induced parkin on blocking beclin-1 with shRNA (WB)” value (parkin; shRNA beclin-1 + Nilotinib) of the same molecule?
**A.** Its value is 28%.

**Q.** And the “decrease in distance travelled compared to control and wild type” value ([3]; Aβ1-42 parkin−/− mice with Nilotinib (first of '±Nilotinib ... respectively'))?
**A.** The value was 80%.

**Q.** And the “time in NW quadrant” value ([3]; Aβ1-42 parkin−/− mice with and without Nilotinib)?
**A.** Its value is “remained significantly more in the NW quadrant”.

**Q.** What about the rotarod motor performance ([4]; lentiviral α-Synuclein mice + Nilotinib (DMSO 39%)) of the same molecule?
**A.** Its rotarod motor performance is 86 % of LacZ level.

**Q.** What about the “motor performance (rotarod)” value ([4]; lentiviral α-synuclein mice, 10 mg/kg Nilotinib or 5 mg/Kg Bosutinib) of the same molecule?
**A.** The value was “improved motor performance”.
